# Laboratory results: patent US7582471B2, “Biosensor for the detection of protein kinase A, and kit comprising the same” (Korea Institute of Science and Technology, priority 2006, dated 2009)
# Where no end group is shown, it is not given here. The star is where a group is joined. Biotin = O=C1N[C@H]2[C@H](CS[C@H]2CCCCC(=O)*)N1
# Tests used:
# PKA [1] = biological target: T1, PKA (Homo sapiens, UniProt P17612); conditions: 132 nM PKA, even at the highest ATP concentration applied
# Experimental: The effect of ATP on the PKA-PKI binding was also evaluated using an SPR analyzer, Biacore 3000 biosensor system (Biacore, U.S.A.). The surface of a CM5 sensor chip (Biacore, Applied Biosystems, U.S.A.) was activated with N-ethyl-N′-(3-dimethylaminopropyl)carbodiimide (EDC) and N-hydroxysuccinimide (NHS), and 50 μg/mL streptavidin was applied thereto, to immobilize on the surface of sensor via an amine-coupling method. […] The mixture solutions of 132 nM PKA and varying concentrations of ATP were applied at the rate of 30 μM/min for 100 seconds, and the buffer solution was then applied for 200 seconds, to obtain sensorgrams.
# PKA [2] = biological target: T1, PKA; conditions: read-out: affinity for PKA; cited from earlier work
substance,measurement,setting,value
Biotin-LRRAALG [biotin-Ala-kemptide],binding of PKA to immobilized peptide (SPR),PKA [1],not observed
same,Kd,PKA [2],10 µM
